Test results published in patent US9549945B2, “Use of alkylated semi-synthetic glycosaminoglycosan ethers for the treatment of inflammation” (University of Utah Research Foundation, priority 2008, dated 2017).
“Also recorded” adds a separate entry of the source.

Assays:
[1] = tested on: RAGE expression in ARPE-19 cells; assay: AGE (CML-BSA)-induced RAGE expression in ARPE-19 cells (immunoblot); format: cell-based, human; conditions: ARPE-19 cells on CML-BSA coated plates
Method: Experiments studying the biology of RAGE in cultured RPE cells using the ARPE-19 human RPE cell line were conducted. As shown in immunoblots (FIG. 17), ARPE-19 cells express at least 4 isoforms of RAGE ranging from 45-50 kDa in cell lysates, and secrete these isoforms into conditioned media. […] Because RAGE ligation activates the transcription factor NF-κB, enhanced expression of RAGE greatly promotes pro-inflammatory signaling. […] This would prevent “feed-forward” pro-inflammatory increases in RAGE expression itself by RAGE ligation.

ARPE-19 cells = assay: AGE-BSA induced apoptosis of ARPE-19 cells (Live/Dead stain); format: cell-based, human; conditions: AGE-BSA 25 μM, 40 h; test substance 200 μM
Method: The ability of AGE products to induce RPE cell apoptosis was investigated. ARPE-19 cells were grown to confluence on round coverslips, then transferred to new dishes for exposure to 25 μM AGE-BSA for 40 h. Apoptosis was then assayed with Molecular Probes Fixable Live/Dead Cell Stain Kit (L11101, Eugene, Oreg.). […] Nuclei are stained […] with DAPI; dead cells are stained green. A. BSA control. Some dead cells are noted at the edges of the coverslip, but live and dead cells are interspersed at the interface. B. AGE-BSA (25 μM). Significant cell death is seen around the edges, and the boundary between live and dead cells is stark. C. AGE-BSA (25 μM)+ODSH (200 μM).

[2] = tested on: LL-37 induced skin inflammation; assay: SAGE topical treatment in LL-37 rosacea model; format: in vivo, Balb/c mice; conditions: topical administration
Method: Balb/c mice were shaved […] area of skin on the back. We then began topical application of a hyaluronan-cased emollient containing 5% SAGEs (active emollient) or hyaluronic acid based emollient alone to this area of skin every 12 hours. Twenty-four hours later, we injected 40 μL of vehicle (PBS) or cationic peptide (at 320 μM concentration) subcutaneously into the shaved skin in the manner described previously. Injections and topical emollient applications were repeated every 12 h thereafter. Forty-eight hours after the initial injection (four injections in total), animals were lightly anesthetized as described previously. […] The intensity of erythema was assessed as a redness score (from 1 to 5), and the area of erythema was measured with calipers. […]
For each mouse, tissue biopsies (6 mm diameter hole punch) were taken immediately, weighted, frozen and stored at −80° C. Tissue MPO activity was measured using a method by Suzuki et. al. (Suzuki K, Ota H, Sasagawa S, Sakatani T, Fujikura T. Assay method for myeloperoxidase in human polymorphonuclear leukocytes. Anal Biochem 132:345-352, 1983) as modified by Young et. al. (Young J M, Spires D A, Bedord C J, Wagner B, Ballaron S J, De oung LM. The mouse ear inflammatory response to topical arachidonic acid. J Invest Dermatol 82:367-371, 1984). […] MPO enzyme activity was assessed at an absorbance wavelength of 630 nm. […]

Xa = assay: Anti-Xa anticoagulant activity; format: biochemical
IIa = assay: Anti-IIa anticoagulant activity; format: biochemical
[3] = target: T1, Hageman factor (Factor XII) (Homo sapiens, UniProt P00748); assay: Hageman factor (Factor XII) activation in pooled human plasma, amidolytic activity; format: biochemical; conditions: FIG. 19
T1 construct: from tissue; host or cells: pooled human plasma
T1 sequence (P00748 20-615): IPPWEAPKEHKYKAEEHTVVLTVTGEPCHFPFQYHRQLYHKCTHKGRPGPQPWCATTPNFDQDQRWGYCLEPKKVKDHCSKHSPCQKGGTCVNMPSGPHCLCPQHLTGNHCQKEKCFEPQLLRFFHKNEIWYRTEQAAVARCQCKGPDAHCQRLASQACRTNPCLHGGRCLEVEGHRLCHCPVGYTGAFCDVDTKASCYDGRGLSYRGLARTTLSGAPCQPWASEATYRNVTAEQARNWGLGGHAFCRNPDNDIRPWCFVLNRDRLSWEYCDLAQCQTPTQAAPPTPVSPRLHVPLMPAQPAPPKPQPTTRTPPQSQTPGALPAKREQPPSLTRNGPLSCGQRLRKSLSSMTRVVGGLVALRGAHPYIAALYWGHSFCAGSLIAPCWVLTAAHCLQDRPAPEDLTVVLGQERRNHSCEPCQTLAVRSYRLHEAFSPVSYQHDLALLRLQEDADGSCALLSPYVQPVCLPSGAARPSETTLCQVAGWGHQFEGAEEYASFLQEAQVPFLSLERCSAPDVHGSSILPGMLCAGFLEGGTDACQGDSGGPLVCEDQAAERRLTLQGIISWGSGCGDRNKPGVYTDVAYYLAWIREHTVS
Method: Nat Biotech 26:669-675, 2008). […] Amidolytic activity specific for active kallikrein was determined by adding D-Pro-Phe-Arg-p-NA and following change in absorbance at […].

## 2-O, 3-O desulfated heparin [ODSH]
[1]
  up-regulation of RAGE expression by CML-BSA: prevented up-regulation of RAGE expression
ARPE-19 cells
  AGE-induced apoptosis: some protection but significant apoptosis still occurs; also recorded: reduced

## Hyaluronic acid [HA, reference compound]
[2]
  MPO activities in LL-37 rosacea model, SAGE vs. HA: did not alleviate
  inflammation in LL-37 rosacea model, SAGE vs. HA: did not alleviate inflammation

## heparin
Xa
  anti-Xa anticoagulant activity: 150 U/mg
IIa
  anti-IIa anticoagulant activity: 150 U/mg
[3]
  concentration that activates Factor XII: 400 ng/mL
